Experimental data published in patent US6150385A, “1,3,4-thiadiazoles useful for the treatment of CMV infections” (Pharmacia & Upjohn Company, priority 1999, dated 2000).

Biological target: T1, HCMV polymerase (Human cytomegalovirus, UniProt P08546)
T1 construct: made in house; host or cells: SF-9 insect cells infected with recombinant baculovirus
Test: HCMV polymerase assay (scintillation proximity assay)
Assay type: biochemical
Conditions: percentage of inhibition at 25 μM concentration in CMV polymerase assay
Outline: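 Baculovirus/SF-9-expressed HCMV polymerase in 5.4 mM HEPES pH 7.5, 11.7 mM KCl, 4.5 mM MgCl2, 0.36 mg/ml BSA, 90 nM 3H-dTTP, with or without 2 mM CHAPS. Started with 6 nM biotinylated poly(dA)-oligo(dT), 30 min at 25 or 37 °C, EDTA-stopped, read by streptavidin-SPA counting; % inhibition at 25 μM.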

T1 sequence (P08546 whole entry): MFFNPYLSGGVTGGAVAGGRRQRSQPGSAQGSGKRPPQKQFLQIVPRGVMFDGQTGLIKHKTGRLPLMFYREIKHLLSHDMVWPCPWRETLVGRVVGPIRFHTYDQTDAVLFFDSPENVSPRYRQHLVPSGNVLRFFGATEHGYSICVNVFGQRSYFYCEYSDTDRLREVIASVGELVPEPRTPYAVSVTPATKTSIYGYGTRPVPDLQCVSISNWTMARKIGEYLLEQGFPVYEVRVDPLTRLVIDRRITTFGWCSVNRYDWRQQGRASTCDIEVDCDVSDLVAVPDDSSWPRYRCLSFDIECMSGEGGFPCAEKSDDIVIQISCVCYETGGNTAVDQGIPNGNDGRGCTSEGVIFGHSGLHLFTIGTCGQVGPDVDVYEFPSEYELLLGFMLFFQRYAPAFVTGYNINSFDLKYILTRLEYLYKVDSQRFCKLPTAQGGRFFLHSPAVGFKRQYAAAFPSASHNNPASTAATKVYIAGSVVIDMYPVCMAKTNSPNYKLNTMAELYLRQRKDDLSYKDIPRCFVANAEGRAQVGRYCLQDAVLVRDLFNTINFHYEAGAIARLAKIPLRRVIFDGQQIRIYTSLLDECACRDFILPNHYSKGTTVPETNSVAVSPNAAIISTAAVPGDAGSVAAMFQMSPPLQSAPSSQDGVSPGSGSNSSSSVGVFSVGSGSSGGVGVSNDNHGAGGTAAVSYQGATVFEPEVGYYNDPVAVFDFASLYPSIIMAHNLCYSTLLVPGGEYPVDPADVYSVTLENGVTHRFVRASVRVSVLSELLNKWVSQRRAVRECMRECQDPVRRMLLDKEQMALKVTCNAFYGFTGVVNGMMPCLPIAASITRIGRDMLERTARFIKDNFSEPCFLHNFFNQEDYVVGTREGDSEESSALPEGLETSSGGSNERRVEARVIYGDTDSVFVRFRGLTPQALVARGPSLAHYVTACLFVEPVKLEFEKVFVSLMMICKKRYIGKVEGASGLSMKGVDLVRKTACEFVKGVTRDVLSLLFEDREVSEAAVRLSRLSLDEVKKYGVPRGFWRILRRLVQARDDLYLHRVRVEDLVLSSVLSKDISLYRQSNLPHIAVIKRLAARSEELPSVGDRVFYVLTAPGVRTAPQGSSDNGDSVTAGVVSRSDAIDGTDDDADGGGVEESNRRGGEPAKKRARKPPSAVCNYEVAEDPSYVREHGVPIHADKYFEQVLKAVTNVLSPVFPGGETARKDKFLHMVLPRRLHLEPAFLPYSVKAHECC

SMILES	inhibition at 25 µM	% Inhib
O=C(Nc1nnc(NCCC(c2ccccc2)c2ccccc2)s1)c1ccc(S(=O)(=O)F)cc1 [compound 217, 4-[({5-[(3,3-diphenylpropyl)amino]-1,3,4-thiadiazol-2-yl}amino)carbonyl]benzenesulfonyl fluoride]	–	43.9%
CCCCCCCC/C=C/CCCCCCCC(=O)Nc1nnc(NCc2ccc(OC)c(OC)c2)s1 [compound 100, (E)-N-{5-[(3,4-dimethoxybenzyl)amino]-1,3,4-thiadiazol-2-yl}-9-octadecenamide]	65.1%	–
O=C(Nc1nnc(NCCCCc2ccccc2)s1)c1ccc(S(=O)(=O)F)cc1 [compound 245, 4-[({5-[(4-phenylbutyl)amino]-1,3,4-thiadiazol-2-yl}amino)carbonyl]benzenesulfonyl fluoride]	–	41.0%
CCCCCCCCCCCNc1nnc(NC(=O)c2cc(F)cc(F)c2)s1 [compound 175, 3,5-difluoro-N-[5-(undecylamino)-1,3,4-thiadiazol-2-yl]benzamide]	49.4%	–
CCCCCCCC/C=C/CCCCCCCC(=O)Nc1nnc(NCCCNC2CCCCC2)s1 [compound 1, (E)-N-(5-{[3-(cyclohexylamino)propyl]amino}-1,3,4-thiadiazol-2-yl)-9-octadecenamide]	100%	–
CCCCCCCC/C=C/CCCCCCCC(=O)Nc1nnc(NCc2ccc(F)cc2)s1 [compound 48, (E)-N-{5-[(4-fluorobenzyl)amino]-1,3,4-thiadiazol-2-yl}-9-octadecenamide]	81.5%	–
O=C(Nc1nnc(NCC2CCCCC2)s1)c1ccc2c(c1)C(=O)OC2=O [compound 3, N-{5-[(cyclohexylmethyl)amino]-1,3,4-thiadiazol-2-yl}-1,3-dioxo-1,3-dihydro-2-benzofuran-5-carboxamide]	100%	–
N#Cc1ccc(C(=O)Nc2nnc(NCC3CCCCC3)s2)cc1 [compound 364, 4-cyano-N-{5-[(cyclohexylmethyl)amino]-1,3,4-thiadiazol-2-yl}benzamide]	28.7%	–
CC(=O)NCCNc1nnc(NC(=O)c2c(C(C)C)cc(C(C)C)cc2C(C)C)s1 [compound 332, N-(5-{[2-(acetylamino)ethyl]amino}-1,3,4-thiadiazol-2-yl)-2,4,6-triisopropylbenzamide]	32%	–
CC(C)(C)CNc1nnc(NC(=O)/C=C/c2ccccc2Cl)s1 [compound 319, (E)-3-(2-chlorophenyl)-N-[5-(neopentylamino)-1,3,4-thiadiazol-2-yl]-2-propenamide]	33.5%	–
CC(C)c1cc(C(C)C)c(C(=O)Nc2nnc(NCc3ccc4c(c3)OCO4)s2)c(C(C)C)c1 [compound 358, N-{5-[(1,3-benzodioxol-5-ylmethyl)amino]-1,3,4-thiadiazol-2-yl}-2,4,6-triisopropylbenzamide]	29.3%	–
CC(C)c1cc(C(C)C)c(C(=O)Nc2nnc(NCc3cccnc3)s2)c(C(C)C)c1 [compound 399, 2,4,6-triisopropyl-N-{5-[(3-pyridinylmethyl)amino]-1,3,4-thiadiazol-2-yl}benzamide]	25.8%	–
CC(C)c1cc(C(C)C)c(C(=O)Nc2nnc(NCCC3CCCN3C)s2)c(C(C)C)c1 (stereo not drawn) [compound 109, 2,4,6-triisopropyl-N-(5-{[2-(1-methyl-2-pyrrolidinyl)ethyl]amino]-1,3,4-thiadiazol-2-yl)benzamide]	63.4%	–
CCCCCCCC/C=C/CCCCCCCC(=O)Nc1nnc(NC[C@@H]2CCC3CC2C3(C)C)s1 (stereo partly drawn) [compound 166, (E)-N-[5-({[(2R)-6,6-dimethylbicyclo[3.1.1]hept-2-yl]methyl}amino)-1,3,4-thiadiazol-2-yl]-9-octadecenamide]	51.1%	–
CCCCCCCC/C=C/CCCCCCCC(=O)Nc1nnc(NCCCCCCCCCCC)s1 [compound 51, (E)-N-[5-(undecylamino)-1,3,4-thiadiazol-2-yl]-9-octadecenamide]	79.5%	–
CC(C)(C)OC(=O)CCNc1nnc(NC(=O)/C=C/c2ccccc2Cl)s1 [compound 426, tert-butyl 3-[(5-{[(E)-3-(2-chlorophenyl)-2-propenoyl]amino}-1,3,4-thiadiazol-2-yl)amino]propanoate]	23.5%	–
CCCCCCCC/C=C/CCCCCCCC(=O)Nc1nnc(NCc2ccco2)s1 [compound 238, (E)-N-{5-[(2-furylmethyl)amino]-1,3,4-thiadiazol-2-yl}-9-octadecenamide]	41.5%	–
O=C(Nc1nnc(NC2CCN(Cc3ccccc3)CC2)s1)c1ccc(S(=O)(=O)F)cc1 [compound 460, 4-[({5-[(1-benzyl-4-piperidinyl)amino]-1,3,4-thiadiazol-2-yl}amino)carbonyl]benzenesulfonyl fluoride]	–	20.7%

Second part, led by results:

inhibition at 25 µM	SMILES	% Inhib
51.4%	O=C(/C=C/c1ccccc1Cl)Nc1nnc(NCc2cccs2)s1 [compound 164, (E)-3-(2-chlorophenyl)-N-{5-[(2-thienylmethyl)amino]-1,3,4-thiadiazol-2-yl}-2-propenamide]	–
31.3%	O=C(Nc1nnc(NCc2ccco2)s1)c1ccc(I)cc1 [compound 341, N-{5-[(2-furylmethyl)amino]-1,3,4-thiadiazol-2-yl}-4-iodobenzamide]	–
31.2%	O=C(Nc1nnc(NC2CCCc3ccccc32)s1)c1cc2ccccc2s1 (stereo not drawn) [compound 343, N-[5-(1,2,3,4-tetrahydro-1-naphthalenylamino)-1,3,4-thiadiazol-2-yl]-1-benzothiophene-2-carboxamide]	–
38.5%	O=C(Nc1nnc(NCCc2c[nH]c3ccccc23)s1)c1cc2ccccc2s1 [compound 269, N-(5-{[2-(1H-indol-3-yl)ethyl]amino}-1,3,4-thiadiazol-2-yl)-1-benzothiophene-2-carboxamide]	–
62.5%	O=C(Nc1nnc(NCCCNC2CCCCC2)s1)c1ccc(C(F)(F)F)cc1 [compound 112, N-(5-{[3-(cyclohexylamino)propyl]amino}-1,3,4-thiadiazol-2-yl)-4-(trifluoromethyl)benzamide]	–
68.8%	O=C(/C=C/c1ccccc1Cl)Nc1nnc(NCCCNC2CCCCC2)s1 [compound 75, (E)-3-(2-chlorophenyl)-N-(5-{[3-(cyclohexylamino)propyl]amino}-1,3,4-thiadiazol-2-yl)-2-propenamide]	–
56.2%	O=C(/C=C/c1ccccc1)Nc1nnc(NCc2ccccn2)s1 [compound 139, (E)-3-phenyl-N-{5-[(2-pyridinylmethyl)amino]-1,3,4-thiadiazol-2-yl}-2-propenamide]	–
32.9%	O=C(Nc1nnc(NCCCn2ccnc2)s1)c1ccc(I)cc1 [compound 324, N-(5-{[3-(1H-imidazol-1-yl)propyl]amino}-1,3,4-thiadiazol-2-yl)-4-iodobenzamide]	–
55.4%	N#Cc1ccc(C(=O)Nc2nnc(NCCCCc3ccccc3)s2)cc1 [compound 143, 4-cyano-N-{5-[(4-phenylbutyl)amino]-1,3,4-thiadiazol-2-yl}benzamide]	–
48.3%	Cc1ccc(C(=O)Nc2nnc(NCc3ccc4c(c3)OCO4)s2)cc1 [compound 181, N-{5-[(1,3-benzodioxol-5-ylmethyl)amino]1,3,4-thiadiazol-2-yl}-4-methylbenzamide]	–
40.3%	O=C(/C=C/c1ccccc1Cl)Nc1nnc(NCc2ccco2)s1 [compound 251, (E)-3-(2-chlorophenyl)-N-{5-[(2-furylmethyl)amino]-1,3,4-thiadiazol-2-yl}-2-propenamide]	–
35.7%	O=C(Nc1nnc(NCCNc2ccccc2)s1)c1cccc([N+](=O)[O-])c1 [compound 291, N-{5-[(2-anilinoethyl)amino]-1,3,4-thiadiazol-2-yl}-3-nitrobenzamide]	–
35.5%	CCOc1ccc2ccccc2c1C(=O)Nc1nnc(NCCC(=O)OC(C)(C)C)s1 [compound 293, tert-butyl 3-[(5-{[(2-ethoxy-1-naphthyl)carbonyl]amino}-1,3,4-thiadiazol-2-yl)amino]propanoate]	–
99.8%	O=C(Nc1nnc(NCc2cccc3ccccc23)s1)c1ccc2c(c1)C(=O)OC2=O [compound 8, N-{5-[(1-naphthylmethyl)amino]-1,3,4-thiadiazol-2-yl}-1,3-dioxo-1,3-dihydro-2-benzofuran-5-carboxamide]	–
21.6%	CCSCCNc1nnc(NC(=O)c2ccc(Cl)c(Cl)c2)s1 [compound 447, 3,4-dichloro-N-(5-{[2-(ethylsulfanyl)ethyl]amino]-1,3,4-thiadiazol-2-yl)benzamide]	–
44.6%	O=C(/C=C/c1ccccc1Cl)Nc1nnc(NCCc2ccccc2)s1 [compound 210, (E)-3-(2-chlorophenyl)-N-[5-(phenethylamino)-1,3,4-thiadiazol-2-yl]-2-propenamide]	–
47.6%	O=C(/C=C/c1ccccc1Cl)Nc1nnc(NCCc2cccs2)s1 [compound 185, (E)-3-(2-chlorophenyl)-N-(5-{[2-(2-thienyl)ethyl]amino}-1,3,4-thiadiazol-2-yl)-2-propenamide]	–
60%	CCCCCCCCCCCNc1nnc(NC(=O)c2ccc(F)cc2F)s1 [compound 121, 2,4-difluoro-N-[5-(undecylamino)-1,3,4-thiadiazol-2-yl]benzamide]	–
24.3%	O=C(Nc1nnc(NCCCN2CCCC2=O)s1)c1ccc(Br)cc1 [compound 419, 4-bromo-N-(5-{[3-(2-oxo-1-pyrrolidinyl)propyl]amino}-1,3,4-thiadiazol-2-yl)benzamide]	–
50.8%	O=C(Nc1nnc(NCCCCc2ccccc2)s1)c1ccc(Cl)c(Cl)c1 [compound 168, 3,4-dichloro-N-{5-[(4-phenylbutyl)amino]-1,3,4-thiadiazol-2-yl}benzamide]	–
37.3%	COc1ccc(CNc2nnc(NC(=O)c3c(Cl)cccc3Cl)s2)cc1OC [compound 280, 2,6-dichloro-N-{5-[(3,4-dimethoxybenzyl)amino]-1,3,4-thiadiazol-2-yl}benzamide]	–
